Measurements taken from ChEMBL document CHEMBL5465560, “Selectivity Literature for EUbOPEN Chemogenomic Library” (2024).
Blank lines part the entries; values can stand above or below the molecule they belong to.

Key:
[1] = biological target: BDNF/NT-3 growth factors receptor (Homo sapiens) (UniProt Q16620); assay: Selectivity interaction (Kinase panel (Z-LYTE Assay)) EUB0001632a NTRK2; settings: at 10 µM
[2] = biological target: T1, Mitogen-activated protein kinase 15 (Homo sapiens) (UniProt Q8TD08); assay: Selectivity interaction (KinomeScan (DiscoverX)) EUB0000607a MAPK15; settings: at 10 µM
T1 sequence (whole entry): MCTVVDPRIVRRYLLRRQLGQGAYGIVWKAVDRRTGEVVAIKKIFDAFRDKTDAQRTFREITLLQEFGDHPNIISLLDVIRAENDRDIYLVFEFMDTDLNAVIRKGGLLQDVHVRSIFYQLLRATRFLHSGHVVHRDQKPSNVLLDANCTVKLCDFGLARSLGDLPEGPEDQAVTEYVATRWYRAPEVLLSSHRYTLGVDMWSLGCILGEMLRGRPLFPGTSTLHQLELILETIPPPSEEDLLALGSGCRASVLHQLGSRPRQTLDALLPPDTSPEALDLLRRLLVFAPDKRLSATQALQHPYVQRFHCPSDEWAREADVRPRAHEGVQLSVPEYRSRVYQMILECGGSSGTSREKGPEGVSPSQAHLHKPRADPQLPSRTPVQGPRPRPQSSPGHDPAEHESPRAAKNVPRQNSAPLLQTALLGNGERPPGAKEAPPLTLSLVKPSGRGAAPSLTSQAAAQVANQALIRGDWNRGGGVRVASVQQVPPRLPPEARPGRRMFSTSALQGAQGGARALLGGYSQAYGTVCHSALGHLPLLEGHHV

[3] = biological target: Serine/threonine-protein kinase 32C (Homo sapiens) (UniProt Q86UX6); assay: Selectivity interaction (ActivX KiNativ screen (kinase selectivity in THP-1 cell lysates)) EUB0000639a STK32C; assay type: subcellular; settings: lysate
[4] = biological target: Protein kinase C beta type (Homo sapiens, UniProt P05771); assay: Selectivity interaction (ProQinase) EUB0000171b PRKCB; settings: at 5 µM
[5] = biological target: T2, Serine/threonine-protein kinase DCLK3 (Homo sapiens) (UniProt Q9C098); assay: Selectivity interaction (KinomeScan (DiscoverX)) EUB0001049a DCLK3; settings: at 1 µM
T2 sequence (whole entry): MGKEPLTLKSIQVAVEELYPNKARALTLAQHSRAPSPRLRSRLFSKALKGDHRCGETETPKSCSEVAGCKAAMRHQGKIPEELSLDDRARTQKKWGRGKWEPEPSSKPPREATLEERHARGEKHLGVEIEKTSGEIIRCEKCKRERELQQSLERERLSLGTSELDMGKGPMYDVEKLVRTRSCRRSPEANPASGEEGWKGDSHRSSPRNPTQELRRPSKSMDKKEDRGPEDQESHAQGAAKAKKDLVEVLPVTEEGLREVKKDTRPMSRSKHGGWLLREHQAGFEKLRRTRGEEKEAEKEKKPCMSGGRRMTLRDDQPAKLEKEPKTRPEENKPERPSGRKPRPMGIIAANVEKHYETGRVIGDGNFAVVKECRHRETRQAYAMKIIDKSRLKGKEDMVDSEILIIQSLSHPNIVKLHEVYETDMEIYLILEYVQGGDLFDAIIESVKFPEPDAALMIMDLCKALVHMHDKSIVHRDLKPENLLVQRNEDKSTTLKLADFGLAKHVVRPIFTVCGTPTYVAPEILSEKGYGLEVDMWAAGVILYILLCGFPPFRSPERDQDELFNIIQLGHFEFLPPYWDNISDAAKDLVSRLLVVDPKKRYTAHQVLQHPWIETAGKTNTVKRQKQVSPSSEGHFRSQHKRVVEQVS

[6] = biological target: T1, Mitogen-activated protein kinase 15 (Homo sapiens); assay: Selectivity interaction (Ambit KINOMEscan and KiNATiv profiling in Jurkat cells) EUB0000090b MAPK15; assay type: cell-based; settings: at 1 µM
[7] = biological target: Mitogen-activated protein kinase 7 (Homo sapiens) (UniProt Q13164); assay: Selectivity interaction (Kinase panel (KiNativ target engagement assay in Jurkat cells)) EUB0001635a MAPK7; assay type: cell-based; settings: Selectivity number of off-targets 0.0, Selectivity number of targets 233.0, Source Knowledge https://www.sciencedirect.com/science/article/pii/S2451945619300674?via%3Dihub, at 1 µM
[8] = biological target: T3, Ephrin type-B receptor 1 (Homo sapiens) (UniProt P54762); assay: Selectivity interaction (KinomeScan (DiscoverX)) EUB0000092b EPHB1; settings: at 10 µM
T3 sequence (whole entry): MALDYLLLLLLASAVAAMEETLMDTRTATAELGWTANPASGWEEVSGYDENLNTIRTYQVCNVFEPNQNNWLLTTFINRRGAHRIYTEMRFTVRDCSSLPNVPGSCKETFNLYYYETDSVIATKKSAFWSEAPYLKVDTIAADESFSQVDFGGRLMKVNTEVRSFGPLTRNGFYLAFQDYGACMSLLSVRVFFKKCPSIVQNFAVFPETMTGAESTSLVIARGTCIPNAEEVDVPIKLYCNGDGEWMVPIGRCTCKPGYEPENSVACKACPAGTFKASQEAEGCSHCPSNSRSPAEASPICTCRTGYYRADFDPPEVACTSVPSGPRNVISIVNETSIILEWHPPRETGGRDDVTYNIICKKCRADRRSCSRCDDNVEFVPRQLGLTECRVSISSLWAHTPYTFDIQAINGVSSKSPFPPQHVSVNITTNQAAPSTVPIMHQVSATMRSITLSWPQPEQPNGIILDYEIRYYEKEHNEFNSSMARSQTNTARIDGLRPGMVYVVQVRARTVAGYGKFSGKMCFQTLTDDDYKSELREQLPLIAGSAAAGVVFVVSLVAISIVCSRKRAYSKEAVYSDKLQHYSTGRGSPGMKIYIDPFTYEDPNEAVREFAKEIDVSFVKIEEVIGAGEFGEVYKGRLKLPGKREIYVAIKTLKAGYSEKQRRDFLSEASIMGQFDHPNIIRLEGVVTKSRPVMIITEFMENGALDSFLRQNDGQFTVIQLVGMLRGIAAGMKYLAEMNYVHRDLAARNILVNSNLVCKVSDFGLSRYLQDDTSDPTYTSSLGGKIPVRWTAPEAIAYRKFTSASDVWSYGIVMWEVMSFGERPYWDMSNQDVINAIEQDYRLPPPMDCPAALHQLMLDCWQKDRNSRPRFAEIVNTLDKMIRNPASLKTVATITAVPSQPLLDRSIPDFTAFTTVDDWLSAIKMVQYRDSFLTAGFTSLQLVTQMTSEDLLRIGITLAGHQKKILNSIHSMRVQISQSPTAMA

Activated CDC42 kinase 1 = Activated CDC42 kinase 1 (Homo sapiens, UniProt Q07912); assay: Selectivity interaction (KinomeScan (DiscoverX)) EUB0000618a TNK2; settings: at 10 µM
Chain of Activated CDC42 kinase 1 (Q07912 whole entry, looked up): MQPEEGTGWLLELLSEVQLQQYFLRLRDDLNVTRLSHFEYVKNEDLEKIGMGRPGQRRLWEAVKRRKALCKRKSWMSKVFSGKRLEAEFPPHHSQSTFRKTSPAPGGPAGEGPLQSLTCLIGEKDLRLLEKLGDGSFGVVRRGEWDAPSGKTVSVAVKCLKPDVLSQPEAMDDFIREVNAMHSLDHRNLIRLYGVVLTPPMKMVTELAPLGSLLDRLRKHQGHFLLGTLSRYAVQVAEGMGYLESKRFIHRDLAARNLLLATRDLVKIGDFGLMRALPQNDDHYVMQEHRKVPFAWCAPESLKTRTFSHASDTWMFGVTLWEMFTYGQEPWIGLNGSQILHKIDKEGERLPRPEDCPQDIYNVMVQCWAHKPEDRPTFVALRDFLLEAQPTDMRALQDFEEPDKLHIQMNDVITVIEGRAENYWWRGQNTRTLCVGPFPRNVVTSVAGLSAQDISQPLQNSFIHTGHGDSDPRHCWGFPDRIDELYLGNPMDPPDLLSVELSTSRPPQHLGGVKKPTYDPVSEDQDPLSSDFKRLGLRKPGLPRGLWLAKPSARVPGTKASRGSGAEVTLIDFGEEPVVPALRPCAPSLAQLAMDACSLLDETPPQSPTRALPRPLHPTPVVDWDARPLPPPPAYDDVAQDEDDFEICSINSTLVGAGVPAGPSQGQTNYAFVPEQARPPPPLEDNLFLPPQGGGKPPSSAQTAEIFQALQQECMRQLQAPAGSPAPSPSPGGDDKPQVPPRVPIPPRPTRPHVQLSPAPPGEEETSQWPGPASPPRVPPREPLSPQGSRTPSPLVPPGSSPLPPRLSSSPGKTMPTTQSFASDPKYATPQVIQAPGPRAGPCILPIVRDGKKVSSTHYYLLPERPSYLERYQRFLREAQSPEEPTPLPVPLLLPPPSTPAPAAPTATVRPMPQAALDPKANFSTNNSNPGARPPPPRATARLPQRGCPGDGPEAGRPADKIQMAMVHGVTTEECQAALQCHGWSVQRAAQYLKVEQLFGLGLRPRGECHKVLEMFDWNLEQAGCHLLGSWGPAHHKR

Chain of Serine/threonine-protein kinase 32C (Homo sapiens) (Q86UX6 whole entry): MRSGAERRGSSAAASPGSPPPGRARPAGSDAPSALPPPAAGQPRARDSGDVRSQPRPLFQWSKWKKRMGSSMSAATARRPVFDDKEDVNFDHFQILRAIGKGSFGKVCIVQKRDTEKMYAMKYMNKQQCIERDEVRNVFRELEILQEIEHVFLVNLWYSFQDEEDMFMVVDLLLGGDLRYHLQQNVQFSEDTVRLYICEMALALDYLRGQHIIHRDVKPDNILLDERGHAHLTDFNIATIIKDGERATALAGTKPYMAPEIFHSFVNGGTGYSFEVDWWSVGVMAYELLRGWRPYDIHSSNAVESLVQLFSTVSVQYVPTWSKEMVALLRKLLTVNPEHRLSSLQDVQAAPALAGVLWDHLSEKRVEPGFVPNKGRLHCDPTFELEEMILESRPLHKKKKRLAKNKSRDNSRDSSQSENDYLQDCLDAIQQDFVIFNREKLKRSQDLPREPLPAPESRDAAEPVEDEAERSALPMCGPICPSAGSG
Chain of BDNF/NT-3 growth factors receptor (Homo sapiens) (Q16620 32-822 limits assumed): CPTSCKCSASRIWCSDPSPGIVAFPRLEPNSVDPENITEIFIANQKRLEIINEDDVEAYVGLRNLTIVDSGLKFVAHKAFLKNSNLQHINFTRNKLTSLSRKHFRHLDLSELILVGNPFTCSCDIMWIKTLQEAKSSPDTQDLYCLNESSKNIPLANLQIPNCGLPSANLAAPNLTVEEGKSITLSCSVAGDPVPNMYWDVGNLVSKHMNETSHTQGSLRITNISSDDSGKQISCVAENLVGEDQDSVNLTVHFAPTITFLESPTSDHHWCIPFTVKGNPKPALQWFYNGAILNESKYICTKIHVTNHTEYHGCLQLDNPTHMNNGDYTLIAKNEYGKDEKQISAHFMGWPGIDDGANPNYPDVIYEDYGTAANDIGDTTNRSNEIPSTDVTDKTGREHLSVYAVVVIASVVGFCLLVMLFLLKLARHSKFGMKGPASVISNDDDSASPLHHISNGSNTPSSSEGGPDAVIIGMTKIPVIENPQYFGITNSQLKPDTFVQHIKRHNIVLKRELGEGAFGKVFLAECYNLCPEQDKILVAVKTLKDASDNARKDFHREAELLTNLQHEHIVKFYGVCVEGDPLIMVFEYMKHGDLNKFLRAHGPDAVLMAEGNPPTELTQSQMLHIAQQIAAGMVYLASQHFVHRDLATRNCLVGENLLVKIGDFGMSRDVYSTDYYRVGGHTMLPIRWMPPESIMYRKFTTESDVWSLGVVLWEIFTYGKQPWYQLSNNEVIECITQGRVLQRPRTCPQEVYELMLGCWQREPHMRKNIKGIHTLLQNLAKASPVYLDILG
Chain of Protein kinase C beta type (P05771 2-671 limits assumed): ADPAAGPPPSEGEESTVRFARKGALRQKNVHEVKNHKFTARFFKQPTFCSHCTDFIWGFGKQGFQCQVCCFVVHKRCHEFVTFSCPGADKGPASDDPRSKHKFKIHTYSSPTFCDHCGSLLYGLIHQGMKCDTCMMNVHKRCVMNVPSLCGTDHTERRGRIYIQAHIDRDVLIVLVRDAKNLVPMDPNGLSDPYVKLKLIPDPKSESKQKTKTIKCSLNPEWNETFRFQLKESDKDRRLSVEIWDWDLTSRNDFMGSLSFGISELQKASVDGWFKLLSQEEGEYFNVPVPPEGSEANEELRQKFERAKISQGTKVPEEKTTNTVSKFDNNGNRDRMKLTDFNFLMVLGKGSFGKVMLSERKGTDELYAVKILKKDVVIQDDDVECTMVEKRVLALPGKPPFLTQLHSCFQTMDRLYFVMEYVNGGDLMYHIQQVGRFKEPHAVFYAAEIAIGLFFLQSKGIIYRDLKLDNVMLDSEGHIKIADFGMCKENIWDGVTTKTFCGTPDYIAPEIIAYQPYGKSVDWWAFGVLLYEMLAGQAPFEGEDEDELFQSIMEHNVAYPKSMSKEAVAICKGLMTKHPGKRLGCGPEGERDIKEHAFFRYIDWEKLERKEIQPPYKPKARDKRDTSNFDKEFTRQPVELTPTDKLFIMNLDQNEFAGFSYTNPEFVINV
Chain of Mitogen-activated protein kinase 7 (Homo sapiens) (Q13164 2-816 limits assumed): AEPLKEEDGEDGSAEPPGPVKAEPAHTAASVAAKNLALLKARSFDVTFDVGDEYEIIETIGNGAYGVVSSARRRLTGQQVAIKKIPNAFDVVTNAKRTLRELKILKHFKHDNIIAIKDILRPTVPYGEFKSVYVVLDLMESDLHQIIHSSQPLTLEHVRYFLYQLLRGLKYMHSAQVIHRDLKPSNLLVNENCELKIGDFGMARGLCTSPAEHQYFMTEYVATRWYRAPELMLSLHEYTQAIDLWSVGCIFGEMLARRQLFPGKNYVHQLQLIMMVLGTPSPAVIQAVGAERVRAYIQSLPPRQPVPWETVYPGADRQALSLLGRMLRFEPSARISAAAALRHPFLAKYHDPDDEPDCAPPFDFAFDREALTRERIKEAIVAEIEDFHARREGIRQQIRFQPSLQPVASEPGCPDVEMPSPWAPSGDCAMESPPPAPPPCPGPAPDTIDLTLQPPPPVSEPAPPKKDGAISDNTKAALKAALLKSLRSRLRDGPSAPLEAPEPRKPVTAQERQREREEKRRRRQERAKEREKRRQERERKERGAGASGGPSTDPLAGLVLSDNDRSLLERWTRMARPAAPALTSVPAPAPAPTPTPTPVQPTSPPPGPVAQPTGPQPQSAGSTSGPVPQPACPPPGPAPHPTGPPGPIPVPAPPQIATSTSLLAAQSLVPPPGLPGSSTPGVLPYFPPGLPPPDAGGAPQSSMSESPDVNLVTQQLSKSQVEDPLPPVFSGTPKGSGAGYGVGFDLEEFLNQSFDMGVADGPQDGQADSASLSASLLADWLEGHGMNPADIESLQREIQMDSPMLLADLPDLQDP

% of control [1]: 4.86%
SMILES: Cn1cc(-n2cnc3c(NCc4nc5cc(Cl)c(Cl)cc5[nH]4)nc(N4CCOCC4)nc32)cn1

SMILES: CNC(=O)Nc1ccc(-c2nc(N3CC4CCC(C3)O4)c3cnn(C4CCC5(CC4)OCCO5)c3n2)cc1
% of control [2]: 25%

% of inhibition ([3]; at 0.01 µM): -1.5%
% of inhibition ([3]; at 0.04 µM): -7.2%
% of inhibition ([3]; at 0.2 µM): -0.3%
% of inhibition ([3]; at 1 µM): -5.2%
% of inhibition ([3]; at 5 µM): -11.5%
SMILES: CC[C@@H]1[C@H](F)C(=O)N[C@@H]1COc1nccc2cc(C(N)=O)c(OC)cc12 [ZIMLOVISERTIB]

% of control [4]: 81%
SMILES: C=CC(=O)Nc1cccc(C(=O)Nc2ccc(Nc3cc(-c4[nH]c(SC)nc4C)ccn3)cc2)c1

SMILES: COc1cc(Nc2nc(C)cc(-c3cnn4nc(OC)ccc34)n2)cc(C(F)(F)F)c1
% of control [5]: 100%

SMILES: CN(C)C/C=C/C(=O)Nc1ccc(C(=O)N2CCCC(Nc3ncc(Cl)c(-c4c[nH]c5ccccc45)n3)C2)cc1 (stereo not drawn)
% of control [6]: 14%

SMILES: C=CC(=O)Nc1ccc(C(=O)Nc2[nH]nc3c2CN(C(=O)N[C@H](CN(C)C)c2ccccc2)C3(C)C)cc1
% of engagement [7]: -3.1%

SMILES: CCC(=O)N1CCN(c2ccc(-n3c(=O)ccc4cnc5ccc(-c6cnc7ccccc7c6)cc5c43)cc2C(F)(F)F)CC1
% of control [8]: 100%

SMILES: O[C@H]1CC[C@H](Nc2ncc3nc(Nc4c(F)cc(F)cc4F)n([C@H]4CCOC4)c3n2)CC1
% of control (Activated CDC42 kinase 1): 100%
